The values below come from ChEMBL document CHEMBL1201862, “PubChem BioAssay data set” (2004).

Test systems include RXF 393; OVCAR-4; SN12C; CCRF-CEM; SNB-19; TK-10; MDA-MB-231; SK-MEL-5; HOP-62; RPMI-8226; Malme-3M; ACHN; HL-60; SK-MEL-2; OVCAR-3; HT-29; PC-3; NCI-H522; HCT-15; SR.
Experiment in all cases: NCI tumour cell line growth inhibition, 48 h

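Cultured in 96-well plates, cells were exposed to test compound for 48 hours across five concentrations. Here, GI50 denotes the concentration required for 50% inhibition of growth.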 Activity calls are given as the source filed them. No stated cut-off is given here; in the data, active = GI50 up to about 1.1 µM and inactive = higher. A value given as a limit tells only on which side of the number the result lay.

As for `O=C(O)C(Cc1ccccc1)NCc1c(O)ccc2c(-c3ccccc3)cc(=O)oc12` (stereo not given), the GI50 in the assay with RXF 393, in the assay with OVCAR-4, with SN12C, in the assay on CCRF-CEM, in the assay with SNB-19 and in the assay with TK-10 was > 100 µM (inactive) throughout. Besides, the GI50 in the assay with MDA-MB-231, in the assay on SK-MEL-5, in the assay on HOP-62, with RPMI-8226, with Malme-3M and with ACHN was > 100 µM (inactive) throughout. The GI50 in the assay with HL-60, in the assay on SK-MEL-2, in the assay on OVCAR-3, in the assay with HT-29, in the assay with PC-3 and in the assay with NCI-H522 was > 100 µM (inactive) each time. Moreover, the values for the GI50 in the assay with HCT-15 and in the assay with SR were above 100 µM and > 100 µM (inactive), respectively.

Consider `S=C(N/N=C(/c1ccccc1)c1ccccn1)N(Cc1ccccn1)Cc1ccccn1`, for which the GI50 is 1 µM (active) in the assay on RXF 393; 0.507 µM (active) in the assay with OVCAR-4; < 0.01 µM (active) in the assay with SN12C; < 0.01 µM (active) with CCRF-CEM; 0.444 µM (active) with SNB-19; 0.236 µM (active) in the assay on TK-10. Further, the GI50 with MDA-MB-231 was < 0.0121 µM (active); in the assay with SK-MEL-5, 0.358 µM (active); in the assay with HOP-62 it was 0.964 µM (active); with RPMI-8226, < 0.0302 µM (active); in the assay with Malme-3M, 0.0655 µM (active); with ACHN, 0.0418 µM (active). Also, the GI50 was < 0.0443 µM (active) in the assay on HL-60; 1.28 µM (inactive) with SK-MEL-2; 0.183 µM (active) with OVCAR-3; < 0.01 µM (active) with HT-29; 0.0541 µM (active) with PC-3; < 0.0247 µM (active) with NCI-H522. The GI50 with HCT-15 is 0.102 µM; in the assay on SR, 0.906 µM (active).

In the case of `COC(=O)c1cc2c(cc1Cl)Sc1nnc(Nc3ccc(C)cc3)n1S2(=O)=O`, the GI50 with RXF 393 was 3.94 µM (inactive); in the assay with OVCAR-4 it was 2.76 µM (inactive); in the assay with SN12C, 18.1 µM (inactive); in the assay on CCRF-CEM, 3.78 µM (inactive); in the assay on SNB-19, 5.81 µM (inactive); with TK-10, 14.3 µM (inactive). Further, the GI50 with MDA-MB-231 was 10.6 µM (inactive); in the assay with SK-MEL-5 it was 13.8 µM (inactive); in the assay on HOP-62, 8.89 µM (inactive); in the assay with RPMI-8226, 2.17 µM (inactive); with Malme-3M it was 11 µM (inactive); in the assay with ACHN, 3.48 µM (inactive). The GI50 was 3.46 µM (inactive) with HL-60; 2.9 µM (inactive) in the assay on SK-MEL-2; 2.19 µM (inactive) in the assay with OVCAR-3; 3.92 µM (inactive) in the assay with HT-29; 4.85 µM (inactive) in the assay with PC-3; 2.67 µM (inactive) in the assay with NCI-H522. Moreover, the GI50 in the assay on HCT-15 is 3.97 µM; in the assay on SR it was 2.12 µM (inactive).

With `C=CCc1c(C)nc(C)nc1N/N=C/C=C/c1ccccc1`, the GI50 in the assay with RXF 393 is 4.06 µM (inactive); with OVCAR-4, 0.0435 µM (active); in the assay on SN12C, 48 µM (inactive); with CCRF-CEM it was 44 µM (inactive); in the assay with SNB-19 it was 31.8 µM (inactive); with TK-10, 33 µM (inactive). Further, the GI50 was > 100 µM (inactive) with MDA-MB-231; 20.3 µM (inactive) in the assay on SK-MEL-5; 16.5 µM (inactive) in the assay with HOP-62; 21.9 µM (inactive) with RPMI-8226; 70 µM (inactive) in the assay on Malme-3M; > 100 µM (inactive) with ACHN. The GI50 in the assay on HL-60 is 33.6 µM (inactive); in the assay with SK-MEL-2 it was 36.7 µM (inactive); in the assay on OVCAR-3, 19.4 µM (inactive); with HT-29, 30.8 µM (inactive); in the assay on PC-3, 34.9 µM (inactive); with NCI-H522, 28.2 µM (inactive). Moreover, the GI50 with HCT-15 is 35.4 µM; with SR, 22.6 µM (inactive).

With `CC(CN1CC(=O)NC(=O)C1)N1CC(=O)NC(=O)C1` (stereo not given) [RAZOXANE], the GI50 in the assay with RXF 393 was 473 µM (inactive); in the assay on OVCAR-4 it was 283 µM (inactive); with SN12C it was 112 µM (inactive); with CCRF-CEM, 35.5 µM (inactive); with SNB-19, 313 µM (inactive); in the assay on TK-10, 168 µM (inactive). In addition, the GI50 with MDA-MB-231 is 171 µM (inactive); in the assay with SK-MEL-5 it was 198 µM (inactive); with HOP-62, 54.7 µM (inactive); in the assay on RPMI-8226 it was 254 µM (inactive); in the assay with Malme-3M, 52.2 µM (inactive); in the assay on ACHN it was 242 µM (inactive). Also, the GI50 in the assay on HL-60 was 53.1 µM (inactive); in the assay on SK-MEL-2, 399 µM (inactive); with OVCAR-3, 356 µM (inactive); in the assay with HT-29, 119 µM (inactive); in the assay with PC-3, 66.1 µM (inactive); with NCI-H522, 90.8 µM (inactive). Further, the GI50 with HCT-15 was 100 µM; in the assay with SR, 155 µM (inactive).
